Read-outs that look alike come from different tables or passages of the source.
Experiments:
Type in all cases: cell-based
MOLT-4 cells = assay: CTG (CellTiter-Glo) cell viability assay, MOLT-4; conditions: Homo sapiens, 3 day incubation, read-out: CTG Cell Viability Assay - MOLT-4 3 day: Average external-IC50
How it was run: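 Luminescence from CellTiter-Glo, read after 3 days of compound exposure at 37 °C, gave viability; IC50 values came from three-parameter logistic curves. Cells were plated at 10,000 per well and dosed over nine 1:3 steps topping at 10 μM.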

BCL-XL [1] = target: T1, BCL-XL (Homo sapiens, UniProt Q07817); assay: BCL-XL degradation assay, western blot in MOLT-4 cells, 16 h; conditions: for DC50: read-out: Bcl-xL WB in MOLT-4 degradation 16 h: Mean external-Abs DC50
T1 construct: endogenous in cells; host or cells: MOLT-4
How it was run: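 MOLT-4 cells treated with compounds at 0.02-10 μM final for 16 hr at 37° C; lysates analysed by western blot with anti-BCL-xL, beta-actin and GAPDH loading controls, infrared imaging and densitometry; DC50 and Dmax % reported as letter codes.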

BCL-XL [2] = target: T1, BCL-XL; assay: Bcl-xL ELISA degradation in MOLT-4 cells, 6 h; conditions: for DC50: read-out: Bcl-xL ELISA in MOLT-4 degradation 6 h: Mean external-Abs DC50
Experimental: The letter codes for BCL-XL DC50 include: A (<0.01 μM); B (0.01-0.1 μM); C (>[…]); D (>0.5-1.0 μM); and E (>1.0 μM). The letter codes for Dmax % include A (>75%); B (50 to 75%); C (<50%).

[3] = western blot, MOLT-4 cells, 16 h, read-out: Bcl-xL WB in MOLT-4 degradation 16 h: Average Dmax %
[4] = western blot, MOLT-4 cells, 16 h

T1 sequence (Q07817 whole entry): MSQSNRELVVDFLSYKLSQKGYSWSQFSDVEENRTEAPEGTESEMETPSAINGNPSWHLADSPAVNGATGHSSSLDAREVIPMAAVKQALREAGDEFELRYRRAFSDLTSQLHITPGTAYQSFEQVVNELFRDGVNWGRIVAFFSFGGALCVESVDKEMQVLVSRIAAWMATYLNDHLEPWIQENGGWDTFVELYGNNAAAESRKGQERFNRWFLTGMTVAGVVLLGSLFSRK

SMILES	IC50 (MOLT-4 cells; MOLT-4, 72 h) [nM]	Dmax (BCL-XL [1]; [3]) [%]	DC50 (BCL-XL [1]; [4]) [nM]	Dmax (BCL-XL [2]) [%]	DC50 (BCL-XL [2]) [nM]	IC50 (MOLT-4 cells; 72 h) [nM]	Dmax (BCL-XL [1]; MOLT-4, read-out: Bcl-xL WB in MOLT-4 degradation 16 h: Average Dmax %) [%]
Cc1ncsc1-c1ccc(CNC(=O)[C@@H]2C[C@@H](O)CN2C(=O)[C@@H](NC(=O)C2(F)CC2)C(C)(C)C)c(OCC(=O)N2CCN(CC#Cc3ccc(OCCCc4sc(N5CCc6cccc(C(=O)Nc7nc8ccccc8s7)c6C5)nc4C(=O)O)c(F)c3)CC2)c1 [I-170]	100 to 1000	> 75	10 to 100	50 to 75	10 to 100	–	–
Cc1ncsc1-c1ccc(CNC(=O)[C@@H]2C[C@@H](O)CN2C(=O)[C@H](c2cc(OCCCCCCCCC(=O)N(C)CC#Cc3ccc(OCCCc4ccc(N5CCc6cccc(C(=O)Nc7nc8ccccc8s7)c6C5)nc4C(=O)O)c(F)c3)no2)C(C)C)cc1 [I-172]	100 to 1000	> 75	< 10	50 to 75	10 to 100	–	–
Cc1ncsc1-c1ccc([C@H](C)NC(=O)[C@@H]2C[C@@H](O)CN2C(=O)[C@@H](NC(=O)CN2CC(N3CCC(NC(=O)c4nc(N5CCc6cccc(C(=O)Nc7nc8ccccc8s7)c6C5)ccc4-c4cnn(CC5CCCCC5)c4C)CC3)C2)C(C)(C)C)cc1 [I-176]	–	–	10 to 100	50 to 75	100 to 500	100 to 1000	> 75
Cc1ncsc1-c1ccc(CNC(=O)[C@@H]2C[C@@H](O)CN2C(=O)[C@H](c2cc(N3CC4(CN(CCCC(=O)N(C)CC#Cc5ccc(OCCCc6ccc(N7CCc8cccc(C(=O)Nc9nc%10ccccc%10s9)c8C7)nc6C(=O)O)c(F)c5)C4)C3)no2)C(C)C)cc1 [I-181]	100 to 1000	> 75	< 10	50 to 75	10 to 100	–	–
Cc1ncsc1-c1ccc([C@H](C)NC(=O)[C@@H]2C[C@@H](O)CN2C(=O)[C@@H](NC(=O)CO[C@H]2C[C@H](OCCNC(=O)c3nc(N4CCc5cccc(C(=O)Nc6nc7ccccc7s6)c5C4)ccc3-c3cnn(CC4CCCCC4)c3C)C2)C(C)(C)C)cc1 [I-182]	100 to 1000	> 75	10 to 100	50 to 75	100 to 500	–	–
Cc1ncsc1-c1ccc(CNC(=O)[C@@H]2C[C@@H](O)CN2C(=O)[C@@H](NC(=O)C2(F)CC2)C(C)(C)C)c(OCCCN(C)CC[C@H](CSc2ccccc2)Nc2ccc(S(=O)(=O)NC(=O)c3ccc(N4CCN(CC5=C(c6ccc(Cl)cc6)CCC(C)(C)C5)CC4)cc3)cc2S(=O)(=O)C(F)(F)F)c1 [I-184]	100 to 1000	> 75	10 to 100	50 to 75	100 to 500	–	–
Cc1ncsc1-c1ccc([C@H](C)NC(=O)[C@@H]2C[C@@H](O)CN2C(=O)[C@@H](NC(=O)CCCCCCN(C)C(=O)c2nc(N3CCc4cccc(C(=O)Nc5nc6ccccc6s5)c4C3)ccc2-c2cnn(CC3CCCCC3)c2C)C(C)(C)C)cc1 [I-185]	100 to 1000	> 75	10 to 100	50 to 75	10 to 100	–	–
C#Cc1ccc([C@H](CO)NC(=O)[C@@H]2C[C@@H](O)CN2C(=O)[C@@H](NC(=O)CCc2ccc(S(=O)(=O)NC(=O)c3nc(N(C)c4cc(C)c(Nc5nc6ccccc6s5)nn4)ccc3-c3cnn(CC4CCCCC4)c3C)cc2)C(C)(C)C)cc1 [I-186]	100 to 1000	> 75	10 to 100	50 to 75	10 to 100	–	–
Cc1ncsc1-c1ccc(CNC(=O)[C@@H]2C[C@@H](O)CN2C(=O)[C@@H](NC(=O)C2(F)CC2)C(C)(C)C)c(OCCN2CCC(CS(=O)(=O)NC(=O)c3nc(N4CCc5cccc(C(=O)Nc6nc7ccccc7s6)c5C4)ccc3-c3cnn(CC4CCCCC4)c3C)CC2)c1 [I-189]	100 to 1000	> 75	10 to 100	50 to 75	10 to 100	–	–
Cc1ncsc1-c1ccc(CNC(=O)[C@@H]2C[C@@H](O)CN2C(=O)[C@H](c2cc(N3CC4(CN(C(=O)CCCCC(=O)N(C)CC#Cc5ccc(OCCCc6ccc(N7CCc8cccc(C(=O)Nc9nc%10ccccc%10s9)c8C7)nc6C(=O)O)c(F)c5)C4)C3)no2)C(C)C)cc1 [I-192]	1000 to 3000	50 to 75	< 10	< 50	> 1000	–	–

Source: US20250197387A1, “BCL-XL DEGRADERS AND USES THEREOF” (Kymera Therapeutics, Inc., priority 2021, published 2025)
